Measured values published in patent US4895589A, “Heterocyclic compounds” (Imperial Chemical Industries PLC, priority 1985, dated 1990).
Read-outs that look alike come from different tables or passages of the source.

Legend:
Vines = conditions: VN, 4000 ppm, 2-3 weeks
Method: (§5) The compounds were tested for plant growth regulator activity against up to tweleve plant species for various growth effects relevant to plant growth regulation.
(§6) After spray, the plants were grown in a glasshouse with 25° C. day/22° C. night temperatures and supplementary lighting was supplied when necessary (from mercury vapour lamps), to provide a 16 hour photoperiod. The exception to this were the temperate cereals, wheat and barley, which were grown in 16° C. day 13° C. night temperatures
(§7) After 2-3 weeks in the glasshouse, depending on the time of year, the plants were visually assessed for morphological characteristics. Formulations blanks were used as controls to assess the Plants.

Soya = conditions: SY, 4000 ppm, 2-3 weeks
[1] = tested on: plant species of Whole Plant Screen (1) or (2); assay: Across screen comparison: total retardation relative to paclobutrazol (Whole Plant Screens (1) and (2)); type: in vivo; conditions: for Total Retardation expressed as a percentage of the total retardation caused by paclobutrazol: compounds of Table I, Table X
Excerpt: The following Example is a general indicative comparison of compounds from EP No. 0052424 with compounds from the preferred class in the present invention. The compounds have not been side-by-side tested on this Example because of the large numbers involved but the retardant activity can be compared using a standard which has been on each test.
The compounds which are compared in this Example have been tested on one of two tests. These are the Whole Plant Screen (1) and Whole Plant Screen (2) the methods for which are described in Examples 17 and 18 respectively.
An across screen comparison between compounds is made by expressing the total retardation (ie. sum of retardation scores recorded for each species tested) caused by the compound as a percentage of the total retardation caused by the standard in that test. The standard chemical gives a measure of the performance of the test and environmental factors. By expressing the test compound activity as a percentage of the standard compound activity these factors can be eliminated . The same standard has been used in every test and this is paclobutrazol a proprietory growth regulator.

Apples = assay: Intermediate Retardant Test, apples; type: in vivo, Apples (Red Delicious); conditions: 672 h, ~28 days, read-out: Percentage Reduction in Height of Apples (Compared to formulation blank)
Method: (§1) Three species are involved in this test RICE, SPRING-BARLEY and APPLES. The variety and growth stages at spray are outlined in Table VI. Compounds were applied at 1000 ppm and 4000 ppm respectively (1 kg and 4 kg ha^-1 at a field volume of 1000 l/ha^-1) as an overall spray. This gives a foliar and root component in the test, i.e. this test will detect the activity of both root and foliar acting compounds. The rice was grown in 4" `paddy` pots, i.e. the roots and bottom of the stems are immersed in water under conditions corresponding to those in paddy fields. Spring barley and apples were grown in 4" pots. The plants were assessed for height to top-most ligule at approximately 28 days after treatment for spring barley and rice and for height to apex at approximately 28 days after the treatment for apples. In each case the result for the 1000 ppm and 4000 ppm test for each compound is compared to the height of the formulation blank in that test, presented as a percentage reduction in height compared to the formulation blank.
as §1, with “in Table XIV. Compounds were” for “in Table VI. Compounds were”, “that test, and presented as” for “that test, presented as”

Wheat [2] = assay: Whole Plant Screen (2), wheat; type: in vivo, Wheat (Timmo); conditions: WW, 4000 ppm
Method: Compound numbers 12-13, 16-17 and 19-20 were tested on an alternative whole plant screen (2). The compounds were tested for plant growth regulator activity against five species for various growth effects relevant to plant growth regulation.
The plant species used in this screen are presented in Table IV with the leaf stage at which they were sprayed. Each chemical was applied at 4000 ppm (4 kg/ha in a 1000 l/ha field volume) using a tracksprayer and a SS8004E (Teejet) nozzle. […]
After 2-6 weeks in the glasshouse, depending on the time of year, the plants were visually assessed for morphological characteristics. Formulation blanks were used as controls to assess the plants. […]

Spring Barley = assay: Intermediate Retardant Test, spring barley; type: in vivo, Spring Barley (Atem/kym); conditions: Hordeum vulgare, 672 h, ~28 days, read-out: Percentage Reduction in Height of Spring Barley (Compared to formulation blank)
Method: as §1
as §1, with “in Table XIV. Compounds were” for “in Table VI. Compounds were”, “that test, and presented as” for “that test, presented as”

Agrostis tenius = conditions: AT, 4000 ppm, 2-3 weeks
Method: as §5, §6, §7

Cynosurus cristatus = conditions: CC, 4000 ppm, 2-3 weeks
Rice [3] = assay: Intermediate Retardant Test, rice; type: in vivo, Rice (Ishikari); conditions: Oryza sativa, 672 h, ~28 days, read-out: Percentage Reduction in Height of Rice (Compared to formulation blank)
Method: as §1
as §1, with “in Table XIV. Compounds were” for “in Table VI. Compounds were”, “that test, and presented as” for “that test, presented as”

Lettuce = conditions: LT, 4000 ppm, 2-3 weeks
Method: as §5, §6, §7

Wheat [4] = conditions: WW, 4000 ppm, 2-3 weeks
Rice [5] = assay: Whole Plant Screen (2), rice; type: in vivo, Rice (Ishikari); conditions: RC, 4000 ppm
Method: (§2) After 2-6 weeks in the glasshouse, depending on the time of year, the plants were visually assessed for morphological characteristics. Formulation blanks were used as controls to assess the plants.
(§3) Compound numbers 1, 5 and 7 (of the present invention) were tested against compounds A, B, C and D (compound Nos. 12, 2, 24 and 50 of Table 1 EP No. 0052424) on whole plant screen (2). The compounds were tested of plant growth regulator activity against five species and for various growth effects relevant to plant growth regulation. The structures are set out in FIG. 1.
(§4) The plant species used in this screen are presented in Table XII with the leaf stage at which they were sprayed Each chemical was applied at 4000 ppm (4 kg/ha in a 1000 l/ha field volume) using a tracksprayer and a SS8004E (Teejet) nozzle. […]

Tomato = conditions: TO, 4000 ppm, 2-3 weeks
Method: as §5, §6, §7

Barley [6] = conditions: BR, 4000 ppm, 2-3 weeks
Method: as §5, §6, §7

Dacrylis glomerata = conditions: DA, 4000 ppm, 2-3 weeks
Apple = assay: Whole Plant Screen (2), apple; type: in vivo, Apple (Red Delicious); conditions: Ap, 4000 ppm, 2-6 weeks, Table V
Method: as §2, §3, §4

Barley [7] = assay: Whole Plant Screen (2), barley; type: in vivo, Barley (Atem); conditions: BR, 4000 ppm, 2-6 weeks, Table V
Method: as §3, §4

Row | Structure (SMILES) | Retardation score (1-3) with greening (G), apical damage (A), tillering/side shooting (T) (Vines) [GT] | Retardation score (1-3) with greening (G), apical damage (A), tillering/side shooting (T) (Soya) | Total Retardation expressed as a percentage of the total retardation caused by paclobutrazol [1] | percent reduction in plant height vs formulation blank at 4000 ppm (Apples; Table IX) [%] | height reduction vs blank at 1000 ppm (Spring Barley; Table VIII) [%] | height reduction vs blank at 4000 ppm (Spring Barley; Table VIII) [%] | Retardation score (1-3) with greening (G), apical damage (A), tillering/side shooting (T) (Agrostis tenius) | Retardation score (1-3) with greening (G), apical damage (A), tillering/side shooting (T) (Cynosurus cristatus) | Percent reduction in rice plant height vs formulation blank at 1000 ppm (Rice [3]; Table VII) [%] | Percent reduction in rice plant height vs formulation blank at 4000 ppm (Rice [3]; Table VII) [%] | Retardation score (1-3) with greening (G), apical damage (A), tillering/side shooting (T) (Lettuce) | Retardation score (1-3) with greening (G), apical damage (A), tillering/side shooting (T) (Wheat [4]) | A = Apical damage (Apple) | T = Tillering or side shooting (Apple) | percent reduction in plant height vs formulation blank at 1000 ppm (Apples; Table IX) [%] | T = Tillering or side shooting (Wheat [2]; 2-6 weeks, Table V) | I = Interligular or internodal length reduction (Barley [7]) | further results
1 | CC(C)(C)C#CC(O)(Cn1cncn1)C(C)(C)C (stereo not shown) [Compound 5, 2,2-dimethyl-3-hydroxy-3-(3,3-dimethyl-but-1-yne-1-yl)-4-(1,2,4-triazol-1-yl)-butane] | 1 | 2G | 28.1 % of paclobutrazol | 31.5 | 7 | 22.6 | 1 (10-30% retardation) | 2 (21-60% retardation) | 11.4 | 21.2 | 1 (10-30% retardation) | 2 (21-60% retardation) |  |  |  |  |  | range of activity / superiority in comparison with EP 0052424 compounds ([1]; Tables X and XI, across screen comparison): lower range of activity than the rest of the preferred class; percent reduction in plant height vs formulation blank at 1000 ppm (Apples; side-by-side, Table XVII): 2%; percent reduction in plant height vs formulation blank at 4000 ppm (Apples; side-by-side, Table XVII): 24%; G = Greening effect (Wheat [2]; side-by-side, Table XIII): 2 (31-60%); T = Tillering or side shooting (Wheat [2]; side-by-side, Table XIII): 2 (31-60%); height reduction vs blank at 1000 ppm (Spring Barley; side-by-side, Table XV): 9%; height reduction vs blank at 4000 ppm (Spring Barley; side-by-side, Table XV): 11%; Percent reduction in rice plant height vs formulation blank at 1000 ppm (Rice [3]; side-by-side, Table XVI): 10%; Percent reduction in rice plant height vs formulation blank at 4000 ppm (Rice [3]; side-by-side, Table XVI): 10%; T = Tillering or side shooting (Rice [5]; side-by-side, Table XIII): 2 (31-60%)
2 | CCCC(C)C#CC(O)(Cn1cncn1)C(C)(C)C (stereo not shown) [Compound 9, 2,2-dimethyl-3-hydroxy-3-(3-methyl-hex-1-yne-1-yl)-4-(1,2,4-triazol-1-yl)-butane] | 2 | 2GAT | 73.9 % of paclobutrazol | 10.8 | 15.7 | 32.9 | 1 (10-30% retardation) | 2 (21-60% retardation) | 8.2 | 32 | 1 (10-30% retardation) | 2GT |  |  |  |  |  | Retardation score (1-3) with greening (G), apical damage (A), tillering/side shooting (T) (Tomato): 2G; Retardation score (1-3) with greening (G), apical damage (A), tillering/side shooting (T) (Barley [6]): 1 (10-30% retardation); Retardation score (1-3) with greening (G), apical damage (A), tillering/side shooting (T) (Dacrylis glomerata): 2 (21-60% retardation)
3 | CC(C)(C)C(O)(C#CCC1CC1)Cn1cncn1 (stereo not shown) [Compound 16, 2,2-Dimethyl-3-hydroxy-3-(3-cyclopropyl-prop-1-yne-lyl)-4-(1,2,4-triazol-1-yl)-butane] |  |  | 100.0 % of paclobutrazol | 62.8 | 11 | 24 |  |  | 14 | 34 |  |  | 2 (31-60%) | 2 (31-60%) | 31.8 | 1 (10-30%) | 3 (61-100%) | G = Greening effect (Apple): 2 (31-60%); G = Greening effect (Rice [5]; 2-6 weeks, Table V): 2 (31-60%); I = Interligular or internodal length reduction (Rice [5]; 2-6 weeks, Table V): 3 (61-100%); R = Retardation (Rice [5]; 2-6 weeks, Table V): 3 (61-100%); T = Tillering or side shooting (Rice [5]; 2-6 weeks, Table V): 1 (10-30%); G = Greening effect (Barley [7]): 1 (10-30%)
4 | CCCCC#CC(O)(Cn1cncn1)C(C)(C)CF (stereo not shown) [Compound 17, 2,2-dimethyl-1-fluoro-3-hydroxy-3-(hex-1-yne-1-yl)-4-(1,2,4-triazole-1-yl)-butane] |  |  | 150.0 % of paclobutrazol | 54.5 |  | 24 |  |  |  | 22 |  |  | 3 (61-100%) | 2 (31-60%) | 9.9 | 1 (10-30%) | 2 (31-60%) | G = Greening effect (Wheat [2]; 2-6 weeks, Table V): 1 (10-30%)
